Results on one molecule are retold here after patent US20140316119A1, “COMPOSITION FOR IMPROVING BIOMETABOLISM PARAMETER” (MATSUTANI CHEMICAL INDUSTRY CO., LTD., priority 2011, published 2014).

The test system of one data set is γ-GTP, ALT, and ALP. The data set can be described thus: Four-week D-psicose ingestion tests (Example 2). Type of data set: in vivo, human. The following applies: 15 g once per day, after 2 weeks. On the procedure: Four-week D-psicose ingestion tests were conducted with recruited healthy individuals (8 individuals with a […]) and diabetes borderline subjects (6 individuals with fasting glucose levels of 110 to 126 mg/dl, or HbA1c of 5.9 to 6.5%) (all subjects, males and females, were at least 20 years of age at the time of informed consent). Each subject ingested 15 g of D-psicose once per day. The D-psicose was purchased from Izumoring Co., Ltd. The subjects were tested after 0, 2, and 4 weeks from the start of the ingestion, and after 4 weeks from the end of the ingestion period (week 8, post-ingestion observation). The subjects were fasted after the dinner served on the day before the testing date. The subjects were measured for γ-GTP, ALT, and ALP by using the service of BML Inc. A paired t-test was used for statistical comparison before and after the ingestion. In the figure, significant difference is given by *:0.05<P or **:0.01<P.

For data set [1], the system named is γ-GTP, ALT, ALP, and a uric acid level. Kind of data set: Clinical trial, 12-week D-psicose ingestion (Example 1). It counts as in vivo, human. On the procedure: Increasing incidence of lifestyle-related diseases, diabetes in particular, has been a problem in Japan. Clinical trials were conducted with recruited diabetic subjects, and biometabolism parameter changes due to D-psicose were investigated. The recruited subjects consisted of diabetes borderline subjects (12 subjects with fasting glucose levels of 110 to 126 mg/dl), and diabetes patients (6 type 2 diabetes patients undergoing drug treatment) (all subjects, males and females, were at least 20 years of age at the time of informed consent). Five grams of D-psicose was ingested per meal for 12 weeks. The D-psicose was purchased from Izumoring Co., Ltd. The subjects were tested after 0, 2, 4, 8, and 12 weeks from the start of the ingestion, and after 4 weeks from the end of the ingestion period (week 16, post-ingestion observation). The subjects were fasted after the dinner served on the day before the testing date. The subjects were measured for γ-GTP, ALT, ALP, and a uric acid level using the service of BML Inc. A paired t-test was used for statistical comparison before and after the ingestion. In the figure, significant difference is given by *:0.05<P or **:0.01<P.

For data set [2] the following is noted: oral ingestion, cited from earlier work.
Where [3] appears, read: healthy individuals + diabetes borderline subjects.
[4] abbreviates: stratified: healthy individuals, P<0.01.

As for `O=C(CO)[C@H](O)[C@H](O)[C@H](O)CO` [D-psicose], the ALP change result in the data set with γ-GTP, ALT, and ALP (setting [3]) is “significantly decreased”; in the data set with γ-GTP, ALT, and ALP (setting [4]), “significant decrease”; in data set [1] (all subjects, 5 g D-psicose per meal, after 2 weeks from the ingestion) it was “significant decrease”; in data set [1] (stratified: diabetes borderline patients, after 2 weeks, P<0.05), “significantly decreased”; in data set [1] (stratified: diabetes patients, after 2 weeks, P<0.05), “significantly decreased”. Further, the ALT change entry is reported as “significantly decreased” in the data set on γ-GTP, ALT, and ALP (setting [3]); “lack of significant decrease” in data set [1] (5 g per meal for 12 weeks). Moreover, the γ-GTP change entry in the data set on γ-GTP, ALT, and ALP (setting [3]) is “significantly decreased”; with γ-GTP, ALT, and ALP (setting [4]) it was “significant decrease”; in data set [1] (all subjects (diabetes borderline + diabetes patients), 5 g D-psicose per meal, after 4 weeks from the ingestion, paired t-test vs before ingestion) it was “significantly decreased”; in data set [1] (stratified: diabetes borderline patients, after 4 weeks, P<0.01), “significant decrease”; in data set [1] (stratified: diabetes patients, after 8 weeks, P<0.01) it was “significant decrease”. Moreover, the “uric acid level change” value in data set [1] (all subjects, 5 g per meal, after two weeks from the ingestion) is “significant decrease”; in data set [1] (stratified: diabetes borderline patients, after 2 weeks) it was “significant decrease”. For the same molecule, the “share of ingested D-psicose directly absorbed but excreted into urine” value in data set [2] is on record as 70%. The “share of ingested D-psicose that reaches the large intestine, excreted into feces” value in data set [2] (essentially not utilized by enteric bacteria) is listed as 30%.
